Laboratory results published in patent US9126945B2, “N-(3-carbamoylphenly)-1H-pyrazole-5-carboxamide derivatives and the use thereof for controlling animal pests” (BAYER INTELLECTUAL PROPERTY GMBH, priority 2011, dated 2015).

Key:
Type in all cases: in vivo
Spodoptera frugiperda [1] = test: Spodoptera frugiperda test (SPODFR spray treatment), maize leaf discs
Excerpt: Spodoptera frugiperda Test (SPODFR Spray Treatment)

Myzus persicae = test: Myzus test (MYZUPE spray treatment)
Method: Myzus test (Myzupe spray treatment)
After 6 days, the efficacy in % is determined.
Myzus Test (MYZUPE Spray Treatment)

Boophilus microplus = Boophilus microplus test (BOOPMI injection); details: for % Activity dat: BOOPMI injection, 7 dat
Method: Boophilus microplus Test (BOOPMI Injection)
Solvent: dimethyl sulphoxide
The active compound solution is injected into the abdomen (Boophilus microplus), and the animals are transferred into dishes and stored in a climate-controlled room. The activity is assessed by laying of fertile eggs.
The active compound solution is injected into the abdomen (Boophilus microplus), and the animals are transferred into dishes and stored in a climate-controlled room.
The activity is assessed by laying of fertile eggs. 100% means that none of the ticks has laid any fertile eggs.

Phaedon cochleariae = Phaedon cochleariae spray test (PHAECO), cabbage leaves, ppm; details: 168 h, 4 ppm, 7 dat
Excerpt: Phaedon cochleariae Spray Test (PHAECO)
(§1) Solvent: 7 parts by weight of dimethylformamide
(§2) Emulsifier: 2 parts by weight of alkylaryl polyglycol ether
(§3) If the addition of ammonium salts or/and penetrants is required, these are in each case added in a concentration of 1000 ppm to the solution of the preparation.

Spodoptera frugiperda [2] = test: Spodoptera frugiperda spray test (SPODFR), cotton leaves, ppm; details: 168 h, 7 dat
Excerpt: Spodoptera frugiperda Spray Test (SPODFR)
as §1, §2, §3
Cotton leaves (Gossypium hirsutum) are sprayed with an active compound formulation of the desired concentration and populated with caterpillars of the armyworm (Spodoptera frugiperda).

Heliothis armigera = Heliothis armigera spray test (HELIAR); details: Helicoverpa armigera, 168 h, 7 dat
Excerpt: Heliothis armigera Spray Test (HELIAR)
as §1, §2, §3

Nilaparvata lugens = Nilaparvata lugens spray test (NILALU); details: 168 h, 7 dat
Excerpt: Nilaparvata lugens Spray Test (NILALU)
as §3

Cn1nc(C(F)(F)C(F)(F)F)c(C(F)(F)F)c1C(=O)Nc1ccc(Cl)c(C(=O)NC2(C#N)CC2)c1 [Example 10]
inhibition at 100 g/ha (Spodoptera frugiperda [1]; Spodoptera frugiperda, foliar, 168 h, SPODFR, 100 g/ha, 7 dat): 100% | efficacy in % (Spodoptera frugiperda [1]; application rate 500 g/ha, after 7 days): 100% | inhibition at 20 g/ha (Myzus persicae; Myzus persicae, 144 h, MYZUPE, 20 g/ha, 6 dat): 80% | inhibition at 100 g/ha (Myzus persicae; Myzus persicae, 144 h, MYZUPE, 100 g/ha, 6 dat): 100% | inhibition at 500 g/ha (Myzus persicae; Myzus persicae, 144 h, MYZUPE, 500 g/ha, 6 dat): 100% | efficacy in % (Myzus persicae; application rate 500 g/ha, after 6 days): 100% | efficacy in % (laying of fertile eggs) (Boophilus microplus; 20 μg/animal, after 7 days): 100% | % Activity dat (Boophilus microplus; 0.16 μg/animal): 80% | % Activity dat (Boophilus microplus; 0.8 μg/animal): 100% | inhibition at 4 ppm (Phaedon cochleariae): 100% | inhibition at 20 ppm (Spodoptera frugiperda [2]): 100% | inhibition at 20 ppm (Heliothis armigera; 20 ppm): 100% | inhibition at 100 ppm (Heliothis armigera; 100 ppm): 100% | inhibition at 100 g/ha (Nilaparvata lugens; 100 g/ha): 100% | inhibition at 500 g/ha (Nilaparvata lugens; 500 g/ha): 100%
